≈ marks a conversion by molar mass, not a printed value.
How the values were obtained:
[1] = test system: Candida albicans 427; assay: Antifungal Test (MIC, Sabouraud's agar); format: cell-based; settings: Candida albicans, 48 h; C. alb 427; 27° C., 2 days; read-out: MIC
[2] = test system: Cryptococcus neoformans 58063; assay: Antifungal Test (MIC, Sabouraud's agar); format: cell-based; settings: Cryptococcus neoformans, 58063, 48 h; C. neofor; 27° C., 2 days
Method: (§1) (i) Preparation of the test solution: The sample to be tested was examined to determine a suitable solvent from those listed below and the method of dissolution, and then the sample was weighed (about 10 mg), dissolved in the selected solvent and diluted with sterilized distilled water to a concentration of 500 μg/ml. Samples of the resulting solution were then subjected to sequential dilution to half the previous concentration to prepare I2 samples in which the concentration of active compound is progressively halved.
(§2) (ii) Test procedure for antifungal activity: Using Nunklon (Registered trademark) 24.hole plates (manufactured by Nunk K. K.), 0.1 ml each of the diluted solutions described above was poured into a hole, 0.9 ml of Sabouraud's agar medium was added to each hole, giving a total of 1 ml in each hole, and mixed to prepare the plate medium.
3 Cryptococcus neoformans 58063 (C. neofor)
(§3) These test strains were inoculated by means of a slant on Sabouraud's agar medium, cultured at 27° C. for 2 days for the yeast strains or for 7 to 14 days for the mold strains, and, kept intact, preserved at 5° C. (subcultured every 1 month). On the day of the test, in the case of the yeast medium, physiological saline to which had previously been added Tween 80 in an amount of 0.1% (w/v) was added to each medium to prepare 10^6 cells/ml suspensions; and, in the case of the mold medium, 4 ml each of the solution above was added to the surface of the agar slant, the surface was rubbed slightly with a stirrer or a platinum loop to suspend the spores, and then, by filtration through a funnel on which 2 sterilized gauzes were placed one upon another, 10^6 cells/ml suspensions were prepared. Using an Eppendorf pipette, 0.1 ml each of these suspension preparations was inoculated and cultivated. The culture was conducted at 27° C. for 2 days for the three strains of yeast, for 5 days for molds 4 , 5 and 6, and for 7 days for molds 7 and 8 to determine minimal inhibitory concentrations of the test samples.

[3] = test system: Coriolus versicolor (Fungus D); assay: Wood-preservative Activity (Antidecay); settings: paper disc, 30 μl of 300 ppm acetone solution, 25° C., 5 days
Method: (§4) A fungal disc of about 4 mm diameter was inoculated on an agar medium (2% by weight malt extract, 1% glucose, 0.3% peptone and 2% agar) in a petri dish of diameter 9 cm, by placing the disc on the center of the medium. Paper disc specimens were prepared by impregnating 30 μl of an acetone solution containing 300 ppm of the test compound into the disc (diameter 8 mm, thickness 0.7 mm) and then subjecting it to dry sterilization. The disc specimens were placed in a circle at about 1 cm distance from the fringe of the grown fungus, three days after the inoculation. The specimens were then maintained at 25° C. for 5 days, after which the antifungal activity was determined by visual observation of infection of the specimens by the fungus.
(§5) The procedure described in Experiment 7 was repeated, except that the fungi tested were Coriolus versicolor (Fungus D) and Tyromyces palustris (Fungus E), which are prescribed in JIS A-9201.

[4] = test system: Aspergillus niger (Fungus A); assay: Antifungal Activity (paper disc on agar); settings: 30 μl of 300 ppm acetone solution, 25° C., 5 days
Method: (§6) A fungal disc of about 4 mm diameter was inoculated on an agar medium (2% by weight malt extract, 1% glucose, 0.3% peptone and 2% agar) in a petri dish of diameter 9 cm, by placing the disc on the center of the medium. Paper disc specimens were prepared by impregnating 30 μl of an acetone solution containing 300 ppm of the test compound into the disc (diameter 8 mm, thickness 0.7 mm) and then subjecting it to dry sterilization. The disc specimens were placed in a circle at about 1 cm distance from the fringe of the grown fungus, three days after the inoculation. The specimens were then maintained at 25° C. for 5 days, after which the antifungal activity was determined by visual observation of infection of the specimens by the fungus. The fungi tested were:
Aspergillus niger (Fungus A),

[5] = test system: Trichophyton rubrum Sc.; assay: Antifungal Test (MIC, Sabouraud's agar); format: cell-based; settings: 168 h, T. rubrum, 27° C., 7 days, read-out: MIC
[6] = test system: Aspergillus fumigatus; assay: Antifungal Test (MIC, Sabouraud's agar); format: cell-based; settings: 120 h, A. fumiga, 27° C., 5 days
Method: as §1, §2
5 Aspergillus fumigatus (A. fumiga)
as §3

[7] = test system: Tyromyces palustris (Fungus E); assay: Wood-preservative Activity (Antidecay); settings: paper disc, 30 μl of 300 ppm acetone solution, 25° C., 5 days
Method: as §4, §5

[8] = test system: Fusarium moliniforme (Fungus C); assay: Antifungal Activity (paper disc on agar); settings: 30 μl of 300 ppm acetone solution, 25° C., 5 days
Method: as §6
Fusarium moliniforme (Fungus C).
The antifungal activity is indicated by the following ratings:

[9] = test system: Trichophyton mentagrophytes Sc.; assay: Antifungal Test (MIC, Sabouraud's agar); format: cell-based; settings: 168 h, T. mentag, 27° C., 7 days
Method: as §1, §2
7 Trichophyton mentagrophytes Sc. (T. mentag)
as §3

[10] = test system: Microsporum gypseum; assay: Antifungal Test (MIC, Sabouraud's agar); format: cell-based; settings: Nannizzia gypsea, 120 h
Method: as §1, §2
6 Microsporum gypseum (M. gypseu)
as §3

[11] = test system: Candida Albicans Sc.; assay: Antifungal Test (MIC, Sabouraud's agar); format: cell-based; settings: 48 h, C. albica, 27° C., 2 days
Method: as §1, §2
1 Candida Albicans Sc. (C. albica)
as §3

[12] = test system: Mucor mucedo; assay: Antifungal Test (MIC, Sabouraud's agar); format: cell-based; settings: 120 h, M. mucedo, 27° C., 5 days, read-out: MIC
[13] = test system: Gliocladium virens (Fungus B); assay: Antifungal Activity (paper disc on agar); settings: 30 μl of 300 ppm acetone solution, 25° C., 5 days
Method: as §6
Gliocladium virens (Fungus B), and

For `C[Si](C)(C)CC(O)(Cn1cncn1)c1ccc(F)cc1F` (stereo not shown) [Compound 1-12, 2-(2,4-Difluorophenyl)-1-(1H-1,2,4-triazole-1-yl)-3-trimethylsilyl-2-propanol], the MIC [1] was over 50 µg/mL, the MIC [2] was 6.2 µg/mL (≈ 19.9 µM) and the “wood-preservative (antidecay) activity, Fungus D” value [3] was “+”. For the same compound, the “antifungal activity, Fungus A” value [4] was “-”, the MIC [5] was 0.8 µg/mL (≈ 2.57 µM) and the MIC [6] was 12.5 µg/mL (≈ 40.1 µM). The “wood-preservative (antidecay) activity, Fungus E” value [7] was “+”, the “antifungal activity, Fungus C” value [8] was “+” and the MIC [9] was 0.8 µg/mL (≈ 2.57 µM). For the same compound, the MIC [10] was 1.5 µg/mL (≈ 4.82 µM), the MIC [11] was over 50 µg/mL and the MIC [12] was 12.5 µg/mL (≈ 40.1 µM). The “antifungal activity, Fungus B” value [13] was “+”.
